Measured values as given in patent US20150056166A1, “FLAVONE DERIVATIVES AND THEIR USE” (Twincore GmbH, priority 2012, published 2015).

Experiments:
[1] = Bioavailability of BJ486K in mice, plasma levels by LC-MS/MS; type: in vivo
Protocol: FIG. 10: Oral bioavailability of BJ486K in mice. A single dose of 0.25 mg/kg of BJ486K was administered through oral (A) or intravenous route (B). Plasma levels of BJ486K were determined 5, 15, 30, 60, 120 and 180 minutes post administration. Mean values of two animals including the standard errors are given. (C)
Bioavailability of BJ486K. Mice (24 in total) were treated either orally or intraveniously with a single dose of 0.25 mg/kg of the inhibitor (solved in saline/10% cremophor EL). At different time points after inhibitor administration (5 min, 15 min, 30 min, 60 min, 120 min or 180 min) two mice from each group were sacrified and the blood was centrifuged to obtain the plasma, which was stored at −80° C. until further examination. 400 μl of each plasma sample was mixed with equal amount of a 2% trifluoroacetic acid and loaded on a SPE Strata C18 column (equilibrated with 1 ml methanol and 1 ml 1% trifluoroacetic acid) for solid phase extraction of the plasma. After several washing steps (1% trifluoroacetic acid and water), the samples were eluted with acetonitrile and dried. […] Samples were further analyzed with a LC-MS/MS (triple quadrupole mass spectrometer LCMS 8030 Shimadzu), which was calibrated at the day of measurement. […] Bioavailability was calculated by dividing the area under curve (AUC) for oral route by the AUC for intravenous route.

[2] = test system: cell culture derived particles from genotype 1a, 1b, 2b, 3a, 4a, 5a and 6a; test: Genotype panel of chimeric reporter viruses, summary statement; type: cell-based, HCV; conditions: Hepatitis C virus
Jc1 [3] = test: Infection of DMSO-differentiated Huh7-Lunet/CD81 cells with Jc1, limiting dilution assay; type: cell-based, HCV; conditions: virus production monitored for 12 days
Description: Next, we investigated if combination of CsA, an inhibitor of HCV RNA-replication in vitro and in vivo and also an immunosuppressive drug used in the HCV post-transplant setting, with BJ486K would increase antiviral potency. To this end, we challenged Huh7-Lunet/CD81 cells differentiated by DMSO-treatment with the highly infectious Jc1 chimera in the presence of CsA, BJ486K or a combination of both drugs (FIG. 5). […] To obtain a more quantitative measure for the combined antiviral effect of BJ486K and CsA, we inoculated nave Huh7-Lunet/CD81 cells with JcR-2a virus together with varying doses of both drugs (FIG. 6A).

HK6a (GT6a) = test: Luciferase infection assay, chimeric reporter virus HK6a/6a/R2a in Huh7-Lunet/CD81 cells; type: cell-based, HCV; conditions: Hepatitis C virus, Huh-7, 72 h
ED43 (GT4a) = test: Luciferase infection assay, chimeric reporter virus ED43/4a/R2a in Huh7-Lunet/CD81 cells; type: cell-based, HCV; conditions: Hepatitis C virus, Huh-7, 72 h
J8 (GT2b) = test: Luciferase infection assay, chimeric reporter virus J8/2b/R2a in Huh7-Lunet/CD81 cells; type: cell-based, HCV; conditions: Hepatitis C virus, Huh-7, 72 h
H77c (GT1a) = test: Luciferase infection assay, chimeric reporter virus H77c/1a/R2a in Huh7-Lunet/CD81 cells; type: cell-based, HCV; conditions: Hepatitis C virus, Huh-7, 72 h
Luc-Jc1 reporter viruses = test: Drug added before, during or after inoculation with Luc-Jc1 reporter virus (FIG. 2C); type: cell-based, HCV; conditions: luciferase 72 h
Protocol: (A) Huh7-Lunet/CD81 cells were transfected with the subgenomic luciferase replicon depicted at the top. Drugs were added 4 h post transfection and the level of HCV RNA translation and RNA replication was quantified by luciferase assays 72 h post transfection. Mean values of three independent experiments each with quadruplicate measurements including the standard deviation are shown. (B) Cells were transfected with the Jc1 chimera depicted above and drugs were added 4 h later. HCV virus release in the presence or absence of given compounds was determined by quantification of intracellular and extracellular core protein levels using a core-specific ELISA. […] Infectivity was determined 72 h later by luciferase assays and compared to DMSO-treated controls. […]
Huh7-Lunet/CD81 cells were infected with reporter virus particles essentially as described recently (Koutsoudakis et al., J. Virol. 2006; 80: 5308-5320). […] Cells were inoculated for 4 h at 37° C., viral inoculum was replaced by fresh culture fluid and infection was quantified 48 h or 72 h after virus inoculation using luciferase assays. […] Cells infected with the renilla reporter virus were lysed in 200 μl lysis buffer (Promega, Mannheim, Germany) and after addition of the luciferase substrate (1 μM of coelenterazin (P. J. K., Kleinblittersdorf, Germany) in PBS) measured for 1 s in a luminometer (Lumat LB9507, Berthold, Freiburg, Germany). […]

Jc1 [4] = test: HCV virus assembly/release, intra- and extracellular core protein after Jc1 RNA transfection; type: cell-based; conditions: up to a dose of 20 μM, 48 h after transfection
Protocol: (A) Huh7-Lunet/CD81 cells were transfected with the subgenomic luciferase replicon depicted at the top. Drugs were added 4 h post transfection and the level of HCV RNA translation and RNA replication was quantified by luciferase assays 72 h post transfection. Mean values of three independent experiments each with quadruplicate measurements including the standard deviation are shown. (B) Cells were transfected with the Jc1 chimera depicted above and drugs were added 4 h later. HCV virus release in the presence or absence of given compounds was determined by quantification of intracellular and extracellular core protein levels using a core-specific ELISA. Mean values of three independent experiments with single measurements including the error range are given. (C) Huh7-Lunet/CD81 cells were inoculated with Luc-Jc1 reporter viruses prepared in the absence of drugs. BJ486K was added to the cells only prior to inoculation (black), only during inoculation (grey) or selectively directly after inoculation (white) as schematically depicted at the top. Infectivity was determined 72 h later by luciferase assays and compared to DMSO-treated controls. Mean values of three independent experiments each with quadruplicate measurements including the standard deviation are shown.
Huh7-Lunet/CD81 cells were transfected with Jc1 RNA and seeded on a 6-well plate. Compounds were added 4 h later. At 48 h after transfection, cell culture supernatant was harvested and used for measuring the extracellular core amount. Cells were washed once with PBS, scraped and centrifuged for 5 min at 1000×g. Cell pellets were resuspended in 500 μl fresh culture fluid and subjected to three cycles of freeze and thaw using liquid nitrogen and a 37° C. thermo block. Samples were than centrifuged at 10,000×g for 10 min to remove cell debris and the core amount was measured (intracellular core protein) using the […] […]
To determine whether BJ486K affects virus assembly or release we transfected Huh7-Lunet/CD81 cells with Jc1 RNA and quantified intra- and extracellular levels of core protein 48 h after transfection (FIG. 2B).

Compound: COc1ccc(-c2cc(=O)c3c(O)c(O)c(OC)cc3o2)cc1 [BJ486K, 5,6-Dihydroxy-7-methoxy-2-(4-methoxy-phenyl)-chromen-4-one]
- bio-availability ([1]; mice): rather low
- half-life ([1]; mouse, plasma, in mice): ~7 min
- IC50 [2]: < 4.2 µM
- effect on infection of differentiated cells, in words (Jc1 [3]): reduced infection almost down to background levels
- IC50 (HK6a (GT6a)): 0.75 µM
- IC90 (HK6a (GT6a)): 2.39 µM
- IC50 (ED43 (GT4a)): 0.74 µM
- IC90 (ED43 (GT4a)): 1.78 µM
- IC50 (J8 (GT2b)): 4.14 µM
- IC90 (J8 (GT2b)): 8.42 µM
- IC50 (H77c (GT1a)): 2.46 µM
- IC90 (H77c (GT1a)): 11.6 µM
- interference with HCV infection by time of addition (Luc-Jc1 reporter viruses): only interfered with HCV infection when the drug was present during virus inoculation
- intracellular and extracellular core protein levels (Jc1 [4]): reduced neither intracellular nor extracellular core protein levels
